Measurements taken from patent US20090044345A1, “Use of Metal Complex Compounds as Oxidation Catalysts” (priority 2006, published 2009).

Legend:
[1] = Stain bleaching in laundry at ambient temperature (hydrogen peroxide), tea stain; set-up: key: CIE brightness Y difference: washed with catalyst minus without; details: 10 mmol/l hydrogen peroxide; catalyst 25 μmol/l; IEC 60456* washing agent 7.5 g/l; 50 minutes at ambient temperature; brightness vs. absence of catalyst
Description: (§1) 1 g of a circular stain (BC01 Tea, CFT; WFK10.0 Carrot juice, WFK; CS20/2 Tomato, CFT; BC04 Curry, CFT) was added into a vial with 3 ml washing liquor. The liquor contained a standard washing agent (IEC 60456*) in a concentration of 7.5 g/l. The hydrogen peroxide concentration was 10 mmol/l. The catalyst concentration (1:1 in-situ complex of the ligand with manganese(II) chloride tetrahydrate or iron (ii) chloride in methanolic solution) was 25 μmol/l. The vial was shaken with a shaker for 50 minutes at ambient temperature. After the treatment the fabric was carefully rinsed and ironed. The brightness values Y according to the CIE standard procedure of the stained test fabrics were measured with a Gretag SPM 100 instrument prior to and after the treatment, respectively. The bleaching effect is given as ΔΔY, i.e. the difference between the brightness of the fabrics washed in presence and in the absence of a catalyst, respectively.

[2] = Stain bleaching in laundry at ambient temperature (hydrogen peroxide), carrot juice stain; set-up: key: CIE brightness Y difference: washed with catalyst minus without; details: 10 mmol/l hydrogen peroxide; catalyst 25 μmol/l; IEC 60456* washing agent 7.5 g/l; 50 minutes at ambient temperature; brightness vs. absence of catalyst
Description: as §1

[3] = Stain bleaching in laundry at 40° C.; set-up: key: CIE brightness increase of stain vs. reference run without catalyst; details: tea-stained cotton; 10 mmol/l hydrogen peroxide; catalyst 20 μmol/l; IEC 60456 A* detergent 7.5 g/l; LINITEST 30 minutes at 40° C.; relative to no catalyst
Description: 7.5 g of white cotton fabric and 2.5 g of tea-stained cotton fabric were treated in 80 ml of washing liquor. The liquor contained a standard detergent (IEC 60456 A*) in a concentration of 7.5 g/l. The hydrogen peroxide concentration was 10 mmol/l. The catalyst concentration (1:1 in-situ complex of the ligand with manganese(II) chloride tetrahydrate in methanolic solution) was 20 μmol/l. The washing process was carried out in a steel beaker in a LINITEST apparatus for 30 minutes at 40° C. To evaluate the bleaching results, the increase in brightness ΔΔY of the stains relative to reference experiments without the addition of catalyst (brightness according to CIE) was determined spectrophotometrically.

[4] = Stain bleaching in laundry at ambient temperature (hydrogen peroxide), tomato stain; set-up: key: CIE brightness Y difference: washed with catalyst minus without; details: 10 mmol/l hydrogen peroxide; catalyst 25 μmol/l; IEC 60456* washing agent 7.5 g/l; 50 minutes at ambient temperature; brightness vs. absence of catalyst
Description: as §1

[5] = Dishwashing: removal of tea deposit from tea-stained cups (IKW method); set-up: key: visual scale 0 = unchanged, very strong deposit to 10 = no deposit; details: visual scale 0 (very strong deposit) to 10 (no deposit); carbonate buffer pH 9.6, 44 mM hydrogen peroxide, 20 μM catalyst, 15 minutes; reference without catalyst 4.5
Description: Tea-stained cups were prepared according to the IKW method (IKW-Arbeitskreis Maschinenspülmittel, “Methoden zur Bestimmung der Reinigungsleistung von maschinellen Geschirrspülmitteln (Part A and B)”, SÖFW, 11+14, 1998). Tea-stained cups were filled with a carbonate buffer solution (pH 9.6) containing 44 mM hydrogen peroxide and 20 μM catalyst (1:1 in-situ complex of the ligand with manganese(II) chloride tetrahydrate in methanolic solution). After 15 minutes the solution was removed, and the cups were rinsed with water. The removal of the tea deposit was evaluated visually on a scale from 0 (i.e. unchanged, very strong deposit) to 10 (i.e. no deposit).

[6] = Stain bleaching in laundry at ambient temperature (hydrogen peroxide), curry stain; set-up: key: CIE brightness Y difference: washed with catalyst minus without; details: 10 mmol/l hydrogen peroxide; catalyst 25 μmol/l; IEC 60456* washing agent 7.5 g/l; 50 minutes at ambient temperature; brightness vs. absence of catalyst
Description: as §1

[7] = Stain bleaching in laundry with peracetic acid as oxidant, curry stain; details: peracetic acid 3 mmol/l; catalyst 10 μmol/l; IEC 60456* washing agent 7.5 g/l; 50 minutes at ambient temperature; vs. absence of catalyst
Description: as §1, with “CFT; WFK 0.0” for “CFT; WFK10.0”, “The peracetic acid” for “The hydrogen peroxide”, “was 3” for “was 10”, “was 10” for “was 25”, “presence vs.” for “presence and in”

[8] = Stain bleaching in laundry with peracetic acid as oxidant, tea stain; details: peracetic acid 3 mmol/l; catalyst 10 μmol/l; IEC 60456* washing agent 7.5 g/l; 50 minutes at ambient temperature; vs. absence of catalyst
Description: as §1, with “CFT; WFK 0.0” for “CFT; WFK10.0”, “The peracetic acid” for “The hydrogen peroxide”, “was 3” for “was 10”, “was 10” for “was 25”, “presence vs.” for “presence and in”

[9] = Stain bleaching in laundry with peracetic acid as oxidant, carrot juice stain; details: peracetic acid 3 mmol/l; catalyst 10 μmol/l; IEC 60456* washing agent 7.5 g/l; 50 minutes at ambient temperature; vs. absence of catalyst
Description: as §1, with “CFT; WFK 0.0” for “CFT; WFK10.0”, “The peracetic acid” for “The hydrogen peroxide”, “was 3” for “was 10”, “was 10” for “was 25”, “presence vs.” for “presence and in”

[10] = Stain bleaching in laundry with peracetic acid as oxidant, tomato stain; details: peracetic acid 3 mmol/l; catalyst 10 μmol/l; IEC 60456* washing agent 7.5 g/l; 50 minutes at ambient temperature; vs. absence of catalyst
Description: as §1, with “CFT; WFK 0.0” for “CFT; WFK10.0”, “The peracetic acid” for “The hydrogen peroxide”, “was 3” for “was 10”, “was 10” for “was 25”, “presence vs.” for “presence and in”

CN(Cc1ccccn1)Cc1cc(O)cc(-c2ccccn2)n1 [Ligand 23-Mn, 6-[(methyl-pyridin-2-ylmethyl-amino)-methyl]-[2,2′]bipyridinyl-4-ol]
ΔΔY (Tea) [1]: 2.9 | ΔΔY (Carrot Juice) [2]: 1.3 | ΔΔY [3]: 2.1 | ΔΔY (Tomato) [4]: 0.6 | Rating [5]: 6.0 | ΔY Δ(Curry) [6]: 7.4

CN(Cc1ccccn1)Cc1cc(O)cc(-c2cc(N3CCCC3)ccn2)n1 [Ligand 27-Mn, 6-[(methyl-pyridin-2-ylmethyl-amino)-methyl]-4′-pyrrolidin-1-yl-[2,2′]bipyridinyl-4-ol]
ΔΔY (Tea) [1]: 5.3 | ΔΔY (Carrot Juice) [2]: 1.3 | ΔΔY [3]: 2.7 | ΔΔY (Tomato) [4]: 4.7 | Rating [5]: 6.7 | ΔY Δ(Curry) [6]: 8.2

CN1CCN(c2ccnc(-c3cc(O)cc(CN(C)Cc4ccccn4)n3)c2)CC1 [Ligand 29-Mn, 4′-(4-methyl-piperazin-1-yl)-6-[(methyl-pyridin-2-ylmethyl-amino)-methyl]-[2,2′]bipyridinyl-4-ol]
ΔΔY (Tea) [1]: 6.4 | ΔΔY (Carrot Juice) [2]: 3.1 | ΔΔY (Tomato) [4]: 4.4 | Rating [5]: 6.1 | ΔY Δ(Curry) [6]: 8.3

CN1CCN(c2ccnc(-c3cc(O)cc(CN(C)Cc4ccccn4)n3)c2)CC1 [Ligand 29/Fe, 4′-(4-methyl-piperazin-1-yl)-6-[(methyl-pyridin-2-ylmethyl-amino)-methyl]-[2,2′]bipyridinyl-4-ol]
ΔΔY [3]: 5.0

CN(Cc1ccccn1)Cc1cc(O)cc(-c2cc(N3CC[N+](C)(C)CC3)ccn2)n1.[I-] [Ligand 30-Mn, 4-{4′-hydroxy-6′-[(methyl-pyridin-2-ylmethyl-amino)-methyl]-[2,2′]bipyridinyl-4-yl}-1,1-dimethyl-piperazin-1-ium iodide]
ΔΔY (Tea) [1]: 7.0 | ΔΔY (Carrot Juice) [2]: 3.6 | ΔΔY [3]: 4.5 | ΔΔY (Tomato) [4]: 7.4 | Rating [5]: 7.8 | ΔY Δ(Curry) [6]: 7.1

CN(Cc1cc(N(C)C)ccn1)Cc1cc(O)cc(-c2cc(N3CCCC3)ccn2)n1 [Ligand 32-Mn, 6-{[(4-dimethylamino-pyridin-2-ylmethyl)-methyl-amino]-methyl}-4′-pyrrolidin-1-yl-[2,2′]bipyridinyl-4-ol]
ΔΔY (Tea) [1]: 6.4 | ΔΔY (Carrot Juice) [2]: 3.1 | ΔΔY (Curry) [7]: 5.3 | ΔΔY (Tea) [8]: 5.6 | ΔΔY [3]: 4.5 | ΔΔY (Carrot Juice) [9]: 2.5 | ΔΔY (Tomato) [10]: 1.2 | ΔΔY (Tomato) [4]: 5.6 | Rating [5]: 6.0 | ΔY Δ(Curry) [6]: 8.5

CN(Cc1cc(N(C)C)ccn1)Cc1cc(O)cc(-c2cc(N(C)CCO)ccn2)n1 [Ligand 33-Mn, 6-{[(4-dimethylamino-pyridin-2-ylmethyl)-methyl-amino]-methyl}-4′-[(2-hydroxy-ethyl)-methyl-amino]-[2,2′]bipyridinyl-4-ol]
ΔΔY (Tea) [1]: 5.5 | ΔΔY (Carrot Juice) [2]: 3.9 | ΔΔY (Curry) [7]: 5.7 | ΔΔY (Tea) [8]: 6.1 | ΔΔY [3]: 3.9 | ΔΔY (Carrot Juice) [9]: 3.4 | ΔΔY (Tomato) [10]: 1.5 | ΔΔY (Tomato) [4]: 6.0 | Rating [5]: 7.1 | ΔY Δ(Curry) [6]: 9.1

COc1c(C)cnc(CN(C)Cc2cc(O)cc(-c3cc(N4CCCC4)ccn3)n2)c1C [Ligand 36-Mn, 6-{[(4-methoxy-3,5-dimethyl-pyridin-2-ylmethyl)-methyl-amino]-methyl}-4′-pyrrolidin-1-yl-[2,2′]bipyridinyl-4-ol]
ΔΔY (Tea) [1]: 4.0 | ΔΔY (Carrot Juice) [2]: 3.3 | ΔΔY [3]: 1.6 | ΔΔY (Tomato) [4]: 4.9 | Rating [5]: 6.9 | ΔY Δ(Curry) [6]: 6.3

CN(Cc1cc(N2CCCC2)ccn1)Cc1cc(O)cc(-c2cc(N3CCCC3)ccn2)n1 [Ligand 39-Mn, 6-{[methyl-(4-pyrrolidin-1-yl-pyridin-2-ylmethyl)-amino]-methyl}-4′-pyrrolidin-1-yl-[2,2′]bipyridinyl-4-ol]
ΔΔY (Tea) [1]: 5.1 | ΔΔY (Carrot Juice) [2]: 4.2 | ΔΔY [3]: 4.0 | ΔΔY (Tomato) [4]: 8.8 | Rating [5]: 6.3 | ΔY Δ(Curry) [6]: 7.9

CN(Cc1cc(N(C)C)ccn1)Cc1cc(O)cc(-c2cc(N(C)C)ccn2)n1 [Ligand 40a-Mn, 4′-dimethylamino-6-{[(4-dimethylamino-pyridin-2-ylmethyl)-methyl-amino]-methyl}-[2,2′]bipyridinyl-4-ol]
ΔΔY (Tea) [1]: 7.0 | ΔΔY (Carrot Juice) [2]: 5.0 | ΔΔY (Curry) [7]: 6.4 | ΔΔY (Tea) [8]: 7.0 | ΔΔY [3]: 3.0 | ΔΔY (Carrot Juice) [9]: 1.6 | ΔΔY (Tomato) [10]: 3.5 | ΔΔY (Tomato) [4]: 5.0 | Rating [5]: 5.9 | ΔY Δ(Curry) [6]: 3.0

CN(Cc1cc(N(C)C)ccn1)Cc1cc(N(C)C)cc(-c2cc(N(C)C)ccn2)n1 [Ligand 40b-Mn]
ΔΔY (Tea) [1]: 1.7 | ΔΔY (Carrot Juice) [2]: 2.7 | ΔΔY [3]: 1.0 | ΔΔY (Tomato) [4]: 2.3 | Rating [5]: 5.8 | ΔY Δ(Curry) [6]: 3.7

CN(Cc1cc(-n2cccc2)ccn1)Cc1cc(O)cc(-c2cc(N(C)C)ccn2)n1 [Ligand 40c-Mn, 4′-dimethylamino-6-{[methyl-(4-pyrrol-1-yl-pyridin-2-ylmethyl)-amino]-methyl}-[2,2′]bipyridinyl-4-ol]
ΔΔY (Tea) [1]: 3.9 | ΔΔY (Carrot Juice) [2]: 2.5 | ΔΔY [3]: 2.2 | ΔΔY (Tomato) [4]: 1.3 | Rating [5]: 6.8 | ΔY Δ(Curry) [6]: 4.9
